Values of other authors in PMC4840272 (Neoplasia (New York, N.Y.), 2016).

Settings: cited from earlier work

In the case of `Cn1c(CCCC(=O)O)nc2cc(N(CCCl)CCCl)ccc21` [bendamustine], the “elimination t1/2” value is listed as “approximately 40 minutes”.
